Test results reported in PubChem BioAssay (NCI).
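GI50: concentration for 50% inhibition of growth. TGI denotes the concentration required for complete inhibition of growth.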

How the values were obtained:
Experiment in all cases: NCI anticancer screen, dose series, 384-well format
[1] = tested on: 786-0 renal
[2] = tested on: A498 renal
[3] = tested on: A549 NSCLC
[4] = tested on: ACHN renal
[5] = tested on: BT-549 breast
[6] = tested on: CAKI-1 renal
[7] = tested on: CCRF-CEM leukemia
[8] = tested on: COLO 205 colon
[9] = tested on: DU-145 prostate
[10] = tested on: EKVX NSCLC
[11] = tested on: HCC-2998 colon
[12] = tested on: HCT-116 colon
[13] = tested on: HCT-15 colon
[14] = tested on: HL-60(TB) leukemia
[15] = tested on: HOP-62 NSCLC
[16] = tested on: HOP-92 NSCLC
[17] = tested on: HS 578T breast
[18] = tested on: HT29 colon
[19] = tested on: IGROV1 ovarian
[20] = tested on: K-562 leukemia
[21] = tested on: KM12 colon
[22] = tested on: LOX IMVI melanoma
[23] = tested on: M14 melanoma
[24] = tested on: MALME-3M melanoma
[25] = tested on: MCF7 breast
[26] = tested on: MDA-MB-231 breast
[27] = tested on: MDA-MB-435 melanoma
[28] = tested on: MDA-MB-468 breast
[29] = tested on: MOLT-4 leukemia
[30] = tested on: NCI-H226 lung
[31] = tested on: NCI-H23 lung
[32] = tested on: NCI-H322M lung
[33] = tested on: NCI-H460 NSCLC
[34] = tested on: NCI-H522 lung
[35] = tested on: NCI/ADR-RES ovarian
[36] = tested on: OVCAR-3 ovarian
[37] = tested on: OVCAR-4 ovarian
[38] = tested on: OVCAR-5 ovarian
[39] = tested on: PC-3 prostate
[40] = tested on: RPMI-8226 leukemia
[41] = tested on: RXF 393 renal
[42] = tested on: SF-268 CNS
[43] = tested on: SF-295 CNS
[44] = tested on: SF-539 CNS
[45] = tested on: SK-MEL-2 melanoma
[46] = tested on: SK-MEL-28 melanoma
[47] = tested on: SK-MEL-5 melanoma
[48] = tested on: SK-OV-3 ovarian
[49] = tested on: SN12C renal
[50] = tested on: SNB-19 CNS
[51] = tested on: SNB-75 CNS
[52] = tested on: SR leukemia
[53] = tested on: SW-620 colon
[54] = tested on: T-47D breast
[55] = tested on: TK-10 renal
[56] = tested on: U251 glioblastoma
[57] = tested on: UACC-257 melanoma
[58] = tested on: UACC-62 melanoma
[59] = tested on: UO-31 renal

SMILES: COc1cc(-c2ncn(/C=C\C(=O)OC(C)C)n2)cc(C(F)(F)F)c1
- GI50 [1]: 37.3 nM
- TGI [1]: 1200 nM
- GI50 [2]: 114 nM
- TGI [2]: 1250 nM
- GI50 [3]: 87.4 nM
- TGI [3]: 1360 nM
- GI50 [4]: 57.5 nM
- TGI [4]: 1500 nM
- GI50 [5]: 19 nM
- TGI [5]: 46.5 nM
- GI50 [6]: 34.7 nM
- TGI [6]: 3.95 µM
- GI50 [7]: 40.9 nM
- TGI [7]: 182 nM
- GI50 [8]: 48.2 nM
- TGI [8]: 1260 nM
- GI50 [9]: 162 nM
- TGI [9]: 866 nM
- GI50 [10]: 429 nM
- TGI [10]: 6.09 µM
- GI50 [11]: 89.2 nM
- TGI [11]: 838 nM
- GI50 [12]: 85 nM
- TGI [12]: 311 nM
- GI50 [13]: 45.8 nM
- TGI [13]: 1040 nM
- GI50 [14]: 23.7 nM
- TGI [14]: 118 nM
- GI50 [15]: 291 nM
- TGI [15]: 1530 nM
- GI50 [16]: 69.5 nM
- TGI [16]: 1550 nM
- GI50 [17]: 68.1 nM
- TGI [17]: 461 nM
- GI50 [18]: 74.3 nM
- TGI [18]: 1120 nM
- GI50 [19]: 92.8 nM
- TGI [19]: 2090 nM
- GI50 [20]: 30.4 nM
- TGI [20]: 177 nM
- GI50 [21]: 217 nM
- TGI [21]: 1150 nM
- GI50 [22]: 198 nM
- TGI [22]: 826 nM
- GI50 [23]: 123 nM
- TGI [23]: 382 nM
- GI50 [24]: 171 nM
- TGI [24]: 609 nM
- GI50 [25]: 65.9 nM
- TGI [25]: 982 nM
- GI50 [26]: 51.4 nM
- TGI [26]: 663 nM
- GI50 [27]: 43.3 nM
- TGI [27]: 210 nM
- GI50 [28]: 150 nM
- TGI [28]: 336 nM
- GI50 [29]: 12.6 nM
- TGI [29]: 25.9 nM
- GI50 [30]: 20.8 nM
- TGI [30]: 483 nM
- GI50 [31]: 56.4 nM
- TGI [31]: 1140 nM
- GI50 [32]: 295 nM
- TGI [32]: 2530 nM
- GI50 [33]: 29.6 nM
- TGI [33]: 163 nM
- TGI [34]: 92.6 nM
- GI50 [35]: 54.9 nM
- TGI [35]: 1270 nM
- GI50 [36]: 26.4 nM
- TGI [36]: 151 nM
- GI50 [37]: 244 nM
- TGI [37]: 2040 nM
- GI50 [38]: 117 nM
- TGI [38]: 10 µM
- GI50 [39]: 37.4 nM
- TGI [39]: 232 nM
- GI50 [40]: 13.6 nM
- TGI [40]: 32.5 nM
- GI50 [41]: 16.6 nM
- TGI [41]: 68.7 nM
- GI50 [42]: 29.9 nM
- TGI [42]: 88.8 nM
- GI50 [43]: 214 nM
- TGI [43]: 2300 nM
- GI50 [44]: 20.5 nM
- TGI [44]: 71.2 nM
- GI50 [45]: 44.3 nM
- TGI [45]: 69.5 nM
- GI50 [46]: 222 nM
- TGI [46]: 1610 nM
- GI50 [47]: 137 nM
- TGI [47]: 601 nM
- GI50 [48]: 2340 nM
- TGI [48]: 14.3 µM
- GI50 [49]: 283 nM
- TGI [49]: 1770 nM
- GI50 [50]: 444 nM
- TGI [50]: 3.15 µM
- GI50 [51]: 91.9 nM
- TGI [51]: 311 nM
- GI50 [52]: 11 nM
- TGI [52]: 23.7 nM
- GI50 [53]: 56.1 nM
- TGI [53]: 1250 nM
- GI50 [54]: 229 nM
- TGI [54]: 3.73 µM
- GI50 [55]: 37.9 nM
- TGI [55]: 1200 nM
- GI50 [56]: 39.2 nM
- TGI [56]: 275 nM
- GI50 [57]: 552 nM
- TGI [57]: 4.6 µM
- GI50 [58]: 42.4 nM
- TGI [58]: 179 nM
- GI50 [59]: 166 nM
- TGI [59]: 1580 nM
